Laboratory results as given in PubChem BioAssay AID330 (DTP/NCI, 2004).
Where “and” joins values, the source holds several entries; their conditions need not be identical. Equal entries are not always repeated. Toxic doses and inconclusive results are not listed. Rule for the calls: active = survival T/C of 150% or more; inactive = T/C below 125% in these data.

System: P388 leukemia ip, CD2F1 mice, survival T/C
Experiment: NCI In Vivo Anticancer Drug Screen. Data for tumor model P388 Leukemia (intraperitoneal) in CD2F1 (CDF1) mice
Settings: endpoint: median survival time, higher = longer survival
How it was run: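 Mice carrying the transplanted tumor received test compound or vehicle. Survival was recorded in each group, and the value is the treated-group measurement divided by that of the vehicle-treated control group.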

[1] = dose: 50.0 mg/kg/injection, schedule: Q01DX005 (ip), vehicle: saline with Tween-80
[2] = dose: 100.0 mg/kg/injection, schedule: Q01DX005 (ip), vehicle: saline with Tween-80
[3] = dose: 60.0 mg/kg/injection, schedule: Q01DX005 (ip), vehicle: Klucel (hydroxypropylcellulose) (HPC)
[4] = dose: 120.0 mg/kg/injection, schedule: Q01DX005 (ip), vehicle: Klucel (hydroxypropylcellulose) (HPC)
[5] = dose: 100.0 mg/kg/injection, schedule: Q01DX001 (ip), vehicle: saline with Tween-80
[6] = dose: 200.0 mg/kg/injection, schedule: Q01DX001 (ip), vehicle: saline with Tween-80
[7] = dose: 400.0 mg/kg/injection, schedule: Q01DX001 (ip), vehicle: saline with Tween-80
[8] = dose: 25.0 mg/kg/injection, schedule: Q01DX009 (ip), vehicle: saline
[9] = dose: 50.0 mg/kg/injection, schedule: Q01DX009 (ip), vehicle: saline
[10] = dose: 100.0 mg/kg/injection, schedule: Q01DX009 (ip), vehicle: saline
[11] = dose: 200.0 mg/kg/injection, schedule: Q01DX009 (ip), vehicle: saline
[12] = dose: 50.0 mg/kg/injection, schedule: Q01DX009 (ip), vehicle: saline with Tween-80
[13] = dose: 100.0 mg/kg/injection, schedule: Q01DX009 (ip), vehicle: saline with Tween-80
[14] = dose: 200.0 mg/kg/injection, schedule: Q01DX009 (ip), vehicle: saline with Tween-80
[15] = dose: 25.0 mg/kg/injection, schedule: Q01DX005 (ip), vehicle: saline with Tween-80
[16] = dose: 240.0 mg/kg/injection, schedule: Q01DX005 (ip), vehicle: Klucel (hydroxypropylcellulose) (HPC)

Measured: T/C

CN(C)CCC(OC(=O)C(c1ccccc1)c1ccccc1)c1ccccc1 (stereo not drawn)
inactive: [1] 101 % of control | [2] 103 % of control

Cn1c(=O)oc2cc(C(=O)CN3CCN(c4cccc(C(F)(F)F)c4)CC3)ccc21
inactive: [3] 92 % of control | [4] 93 % of control

COC(=O)C1=NOC(Cc2ccccc2)C1 (stereo not drawn)
inactive: dose: 60.0 mg/kg/injection, schedule: Q01DX005 (ip), vehicle: saline with Tween-80 100 % of control | dose: 120.0 mg/kg/injection, schedule: Q01DX005 (ip), vehicle: saline with Tween-80 114 % of control | dose: 240.0 mg/kg/injection, schedule: Q01DX005 (ip), vehicle: saline with Tween-80 96 % of control

CN(c1ccccc1)S(=O)(=O)c1ccc2ccccc2c1O
inactive: [5] 101 % of control | [6] 100 % of control | [7] 91 % of control

O=C(O)CCCC(=O)NC1CC2c3ccccc3C1c1ccccc12 (stereo not drawn)
inactive: dose: 75.0 mg/kg/injection, schedule: Q01DX009 (ip), vehicle: saline with Tween-80 100 % of control | dose: 100.0 mg/kg/injection, schedule: Q04DX003 (ip), vehicle: saline sonified 100 % of control | dose: 150.0 mg/kg/injection, schedule: Q01DX009 (ip), vehicle: saline with Tween-80 100 % of control | dose: 200.0 mg/kg/injection, schedule: Q04DX003 (ip), vehicle: saline sonified 105 % of control | dose: 400.0 mg/kg/injection, schedule: Q04DX003 (ip), vehicle: saline sonified 100 % of control

COC(=O)/C=N/NS(=O)(=O)c1ccc(C)cc1
inactive: dose: 12.5 mg/kg/injection, schedule: Q01DX009 (ip), vehicle: other 102 % of control | dose: 25.0 mg/kg/injection, schedule: Q01DX009 (ip), vehicle: other 102 % of control | dose: 50.0 mg/kg/injection, schedule: Q01DX009 (ip), vehicle: other 100 % of control | dose: 100.0 mg/kg/injection, schedule: Q01DX009 (ip), vehicle: other 100 % of control

Cc1cc(C)c(C(=O)CCl)c(C)c1C(=O)CCl
inactive: [5] 102 % of control | [6] 110 % of control | [7] 109 % of control

O=C(O)c1cc(O)ccc1O
inactive: [8] 104 % of control | [9] 90 % of control | [10] 97 % of control | [11] 94 % of control

OC(c1ccncc1)c1cc(Cl)ccc1Cl (stereo not drawn)
inactive: [12] 94 % of control | [13] 100 % of control | [14] 108 % of control

COC(=O)[C@H]1[C@H]2C[C@@H]3c4[nH]c5ccccc5c4CCN3C[C@H]2C[C@@H](OC(=O)c2cc(OC)c(OC)c(OC)c2)[C@@H]1OC
inactive: dose: 3.13 mg/kg/injection, schedule: Q01DX005 (ip), vehicle: saline with Tween-80 105 % of control and 123 % of control | dose: 6.25 mg/kg/injection, schedule: Q01DX005 (ip), vehicle: saline with Tween-80 118 % of control (2×) and 124 % of control | dose: 12.5 mg/kg/injection, schedule: Q01DX005 (ip), vehicle: saline with Tween-80 114 % of control and 118 % of control and 124 % of control | [15] 111 % of control and 94 % of control and 97 % of control

C=CCC(C)(C)CC=C1C2CCC1N(C(=O)OC)N2C(=O)OC
inactive: [15] 107 % of control | [1] 99 % of control | [2] 112 % of control

Oc1ccc(N=Nc2nccs2)c(O)c1
inactive: [12] 96 % of control | [13] 93 % of control | [14] 99 % of control

CC(=O)c1ccc(C)cc1C
inactive: dose: 25.0 mg/kg/injection, schedule: Q01DX009 (ip), vehicle: saline with Tween-80 98 % of control | [12] 98 % of control | [13] 104 % of control and 110 % of control | [14] 118 % of control

Cc1cc2c(c(O)cc(=O)n2C)c(=O)n1C
inactive: [3] 102 % of control | [4] 91 % of control | [16] 91 % of control

CN(C)CC[CH2][Sn]([CH2]CCN(C)C)([CH2]CCN(C)C)[CH2]CCN(C)C
inactive: [12] 105 % of control | [13] 97 % of control

C#CCSc1ncnc2nc[nH]c12
inactive: [8] 95 % of control | dose: 25.0 mg/kg/injection, schedule: Q04DX003 (ip), vehicle: saline 104 % of control | [9] 109 % of control | dose: 50.0 mg/kg/injection, schedule: Q04DX003 (ip), vehicle: saline 100 % of control | [10] 86 % of control | dose: 100.0 mg/kg/injection, schedule: Q04DX003 (ip), vehicle: saline 100 % of control

C(/Oc1ccc(-c2ccccc2)cc1)=C(/c1ccccc1)c1ccccc1-c1ccccc1
inactive: dose: 50.0 mg/kg/injection, schedule: Q01DX005 (ip), vehicle: Klucel (hydroxypropylcellulose) (HPC) 101 % of control | dose: 100.0 mg/kg/injection, schedule: Q01DX005 (ip), vehicle: Klucel (hydroxypropylcellulose) (HPC) 99 % of control | dose: 200.0 mg/kg/injection, schedule: Q01DX005 (ip), vehicle: Klucel (hydroxypropylcellulose) (HPC) 92 % of control

O=C(CCCCCO)c1nc2ccccc2s1
inactive: [3] 100 % of control | [4] 102 % of control | [16] 94 % of control

CC1OC2=C(C(=O)c3ccccc3C2=O)C(O)C1O (stereo not drawn)
inactive: dose: 25.0 mg/kg/injection, schedule: Q01DX001 (ip), vehicle: Klucel (hydroxypropylcellulose) (HPC) 96 % of control | dose: 50.0 mg/kg/injection, schedule: Q01DX001 (ip), vehicle: Klucel (hydroxypropylcellulose) (HPC) 96 % of control

COc1cccc2c1C(=O)c1c(O)c3c(c(O)c1C2=O)CC(O)(C(C)=O)CC3OC1CC(NC(=O)C(CCCCN)NC(=O)C(N)CCN)C(O)C(C)O1 (stereo not drawn)
inactive: dose: 2.5 mg/kg/injection, schedule: Q04DX003 (ip), vehicle: water 94 % of control | dose: 5.0 mg/kg/injection, schedule: Q04DX003 (ip), vehicle: water 94 % of control | dose: 10.0 mg/kg/injection, schedule: Q04DX003 (ip), vehicle: water 98 % of control | dose: 20.0 mg/kg/injection, schedule: Q04DX003 (ip), vehicle: water 101 % of control | dose: 40.0 mg/kg/injection, schedule: Q04DX003 (ip), vehicle: water 105 % of control | dose: 80.0 mg/kg/injection, schedule: Q04DX003 (ip), vehicle: distilled water + Tween-80 96 % of control | dose: 160.0 mg/kg/injection, schedule: Q04DX003 (ip), vehicle: distilled water + Tween-80 105 % of control | dose: 320.0 mg/kg/injection, schedule: Q04DX003 (ip), vehicle: distilled water + Tween-80 105 % of control

CCCCCCCCCCCCSCN(CC)CC
inactive: [8] 89 % of control | [9] 99 % of control and 111 % of control | [10] 101 % of control and 103 % of control

Oc1cccnc1
inactive: [8] 100 % of control and 103 % of control | [9] 99 % of control and 102 % of control | [10] 102 % of control and 103 % of control | [11] 103 % of control and 112 % of control | dose: 400.0 mg/kg/injection, schedule: Q01DX009 (ip), vehicle: saline 100 % of control and 108 % of control | dose: 600.0 mg/kg/injection, schedule: Q01DX009 (ip), vehicle: saline 102 % of control and 111 % of control

COn1nnc2ccc(Cl)cc21
inactive: dose: 50.0 mg/kg/injection, schedule: Q01DX009 (ip), vehicle: Klucel (hydroxypropylcellulose) (HPC) 99 % of control | dose: 100.0 mg/kg/injection, schedule: Q01DX009 (ip), vehicle: Klucel (hydroxypropylcellulose) (HPC) 100 % of control | dose: 200.0 mg/kg/injection, schedule: Q01DX009 (ip), vehicle: Klucel (hydroxypropylcellulose) (HPC) 100 % of control

CCOC(=O)C(C)NO (stereo not drawn)
inactive: [9] 97 % of control | [10] 94 % of control

CCOC(=O)N(O)c1ccc(C(N)=O)cc1
inactive: [12] 100 % of control | [13] 97 % of control | [14] 108 % of control

Nc1cccc2c1C(=O)c1cccc(Cl)c1C2=O
inactive: dose: 100.0 mg/kg/injection, schedule: Q04DX003 (ip), vehicle: saline with Tween-80 104 % of control | dose: 200.0 mg/kg/injection, schedule: Q04DX003 (ip), vehicle: saline with Tween-80 104 % of control | dose: 400.0 mg/kg/injection, schedule: Q04DX003 (ip), vehicle: saline with Tween-80 100 % of control

C=CC1(C)CC(=O)C2(O)C(C)(O1)C(OC(C)=O)C(O)C1C(C)(C)CCC(O)C12C (stereo not drawn)
inactive: dose: 2.0 mg/kg/injection, schedule: Q01DX005 (ip), vehicle: other 99 % of control | dose: 4.0 mg/kg/injection, schedule: Q01DX005 (ip), vehicle: other 100 % of control | dose: 8.0 mg/kg/injection, schedule: Q01DX005 (ip), vehicle: other 95 % of control | dose: 16.0 mg/kg/injection, schedule: Q01DX005 (ip), vehicle: other 94 % of control

CC(=O)c1ccc(-c2ccc(C(C)=O)cc2)cc1
inactive: [12] 96 % of control | [13] 100 % of control | [14] 87 % of control | dose: 400.0 mg/kg/injection, schedule: Q01DX009 (ip), vehicle: saline with Tween-80 87 % of control
